PubChem BioAssay (NCI)
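A five-concentration, 48-hour dose response in 96-well plates underlies each endpoint, interpolated linearly between surrounding concentrations. Here, GI50 denotes the concentration required for 50% inhibition of growth. TGI: concentration producing complete growth inhibition.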

What was measured:
Assay in all cases: DTP human tumour cell line panel, 48 h
[1] = test system: 786-0 renal
[2] = test system: HS 578T breast
[3] = test system: MOLT-4 leukemia
[4] = test system: BT-549 breast
[5] = test system: OVCAR-8 ovarian
[6] = test system: KM12 colon
[7] = test system: SW-620 colon
[8] = test system: SR leukemia
[9] = test system: SN12C renal
[10] = test system: UACC-257 melanoma
[11] = test system: HOP-62 NSCLC
[12] = test system: EKVX NSCLC
[13] = test system: HCC-2998 colon
[14] = test system: A498 renal
[15] = test system: CCRF-CEM leukemia
[16] = test system: A549 NSCLC
[17] = test system: UO-31 renal
[18] = test system: CAKI-1 renal
[19] = test system: SNB-19 CNS
[20] = test system: RXF 393 renal
[21] = test system: HOP-92 NSCLC
[22] = test system: NCI-H226 lung
[23] = test system: MDA-MB-435
[24] = test system: SNB-75 CNS
[25] = test system: NCI-H460 lung
[26] = test system: SK-OV-3 ovarian
[27] = test system: OVCAR-5 ovarian
[28] = test system: DU-145 prostate
[29] = test system: K-562 leukemia
[30] = test system: RPMI-8226 leukemia
[31] = test system: NCI-H23 lung
[32] = test system: HT29 colon
[33] = test system: TK-10 renal
[34] = test system: ACHN renal
[35] = test system: LOX IMVI melanoma
[36] = test system: U251 CNS
[37] = test system: UACC-62 melanoma
[38] = test system: OVCAR-3 ovarian
[39] = test system: NCI/ADR-RES ovarian
[40] = test system: HCT-116 colon
[41] = test system: HCT-15 colon
[42] = test system: MDA-MB-231 breast
[43] = test system: M14 melanoma
[44] = test system: OVCAR-4 ovarian
[45] = test system: MALME-3M melanoma
[46] = test system: SF-295 CNS
[47] = test system: HL-60(TB) leukemia
[48] = test system: NCI-H522 lung
[49] = test system: SK-MEL-2 melanoma
[50] = test system: MCF7 breast
[51] = test system: SF-268 CNS
[52] = test system: SK-MEL-5 melanoma
[53] = test system: COLO 205 colon
[54] = test system: T-47D breast
[55] = test system: SF-539 CNS
[56] = test system: IGROV1 ovarian
[57] = test system: SK-MEL-28 melanoma

Structure (SMILES): CN(C)c1ccc(-c2cc(-c3ccc(Nc4nc(Nc5ccccc5)nc(Nc5ccc(Cl)cc5)n4)cc3)nc(N)n2)cc1
- GI50 [1]: 6.32 µM
- TGI [1]: 46 µM
- GI50 [2]: 2.57 µM
- TGI [2]: 20.2 µM
- GI50 [3]: 1.8 µM
- TGI [3]: 7.87 µM
- GI50 [4]: 3.64 µM
- TGI [4]: 25 µM
- GI50 [5]: 5.24 µM
- TGI [5]: > 100 µM
- GI50 [6]: 3.06 µM
- TGI [6]: 13 µM
- GI50 [7]: 6.86 µM
- TGI [7]: 21.8 µM
- GI50 [8]: 1.39 µM
- TGI [8]: 5.02 µM
- GI50 [9]: 7.52 µM
- TGI [9]: 42.2 µM
- GI50 [10]: 5.81 µM
- TGI [10]: 37.4 µM
- GI50 [11]: 8.01 µM
- TGI [11]: 42.4 µM
- GI50 [12]: 1.82 µM
- TGI [12]: > 100 µM
- GI50 [13]: 13.7 µM
- TGI [13]: 87.9 µM
- GI50 [14]: 4.63 µM
- TGI [14]: 20.1 µM
- GI50 [15]: 3.73 µM
- TGI [15]: 23 µM
- GI50 [16]: 5.34 µM
- TGI [16]: > 100 µM
- GI50 [17]: 2.69 µM
- TGI [17]: > 100 µM
- GI50 [18]: 1.61 µM
- TGI [18]: 7.76 µM
- GI50 [19]: 13.5 µM
- TGI [19]: 69.2 µM
- GI50 [20]: 2.78 µM
- TGI [20]: 12.9 µM
- GI50 [21]: 1.48 µM
- TGI [21]: 13.2 µM
- GI50 [22]: 12.1 µM
- TGI [22]: 98.7 µM
- GI50 [23]: 4.83 µM
- TGI [23]: 74.9 µM
- GI50 [24]: 3.27 µM
- TGI [24]: 37.7 µM
- GI50 [25]: 3.71 µM
- TGI [25]: 14.1 µM
- GI50 [26]: 18.8 µM
- TGI [26]: > 100 µM
- GI50 [27]: 16.1 µM
- TGI [27]: 91.5 µM
- GI50 [28]: 8.09 µM
- TGI [28]: 21.4 µM
- GI50 [29]: 2.61 µM
- TGI [29]: 11.4 µM
- GI50 [30]: 3.32 µM
- TGI [30]: 20 µM
- GI50 [31]: 8.47 µM
- TGI [31]: 53.5 µM
- GI50 [32]: 3.27 µM
- TGI [32]: 12.7 µM
- GI50 [33]: 5.68 µM
- TGI [33]: 38.7 µM
- GI50 [34]: 5.88 µM
- TGI [34]: > 100 µM
- GI50 [35]: 5.03 µM
- TGI [35]: 46.2 µM
- GI50 [36]: 5.06 µM
- TGI [36]: 25 µM
- GI50 [37]: 6.26 µM
- TGI [37]: 40 µM
- GI50 [38]: 5.77 µM
- TGI [38]: 28.9 µM
- GI50 [39]: 9.23 µM
- TGI [39]: > 100 µM
- GI50 [40]: 3.51 µM
- TGI [40]: 15.2 µM
- GI50 [41]: 4.26 µM
- TGI [41]: > 100 µM
- GI50 [42]: 5.64 µM
- TGI [42]: 23.4 µM
- GI50 [43]: 3.65 µM
- TGI [43]: 17.6 µM
- GI50 [44]: 5.01 µM
- TGI [44]: > 100 µM
- GI50 [45]: 4.07 µM
- TGI [45]: 49.2 µM
- GI50 [46]: 2.4 µM
- TGI [46]: 16.6 µM
- GI50 [47]: 3.2 µM
- TGI [47]: 12.2 µM
- GI50 [48]: 5.8 µM
- TGI [48]: 38.7 µM
- GI50 [49]: 7.18 µM
- TGI [49]: 43.5 µM
- GI50 [50]: 2.84 µM
- TGI [50]: 15 µM
- GI50 [51]: 6.69 µM
- TGI [51]: 56.4 µM
- GI50 [52]: 1.89 µM
- TGI [52]: 11.6 µM
- GI50 [53]: 2.04 µM
- TGI [53]: 11.6 µM
- GI50 [54]: 3.04 µM
- TGI [54]: 17.9 µM
- GI50 [55]: 5.61 µM
- TGI [55]: 23.5 µM
- GI50 [56]: 2.07 µM
- TGI [56]: 62 µM
- GI50 [57]: 10.8 µM
- TGI [57]: 29.9 µM
